Assay results from patent publication US20230399342A1 (Incyte Corporation, priority 2022, published 2023).

Experiments:
DGKα = DGKα (Homo sapiens (Human), UniProt P23743); assay: In vitro DGKα inhibition assay (ADP-Glo); type: biochemical; details: His-tagged human recombinant enzyme, 0.1 nM DGKα, 50 μM ATP, 20 μM DLG, 90 minute incubation
Method in brief: (§1)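 His-tagged human DGKα (0.1 nM, 50 μM ATP) or DGKζ (0.4 nM, 30 μM ATP), each with 20 μM DLG, in Tris pH 7.5 buffer with CHAPS, Mg2+, Ca2+.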

DGKζ = DGKζ (Homo sapiens (Human), UniProt Q13574); assay: In vitro DGKζ inhibition assay (ADP-Glo); type: biochemical; details: His-tagged human recombinant enzyme, 0.4 nM DGK, 30 μM ATP, 20 μM DLG, 90 minute incubation
Method in brief: as §1

DGKζ, sequence (Q13574 whole entry): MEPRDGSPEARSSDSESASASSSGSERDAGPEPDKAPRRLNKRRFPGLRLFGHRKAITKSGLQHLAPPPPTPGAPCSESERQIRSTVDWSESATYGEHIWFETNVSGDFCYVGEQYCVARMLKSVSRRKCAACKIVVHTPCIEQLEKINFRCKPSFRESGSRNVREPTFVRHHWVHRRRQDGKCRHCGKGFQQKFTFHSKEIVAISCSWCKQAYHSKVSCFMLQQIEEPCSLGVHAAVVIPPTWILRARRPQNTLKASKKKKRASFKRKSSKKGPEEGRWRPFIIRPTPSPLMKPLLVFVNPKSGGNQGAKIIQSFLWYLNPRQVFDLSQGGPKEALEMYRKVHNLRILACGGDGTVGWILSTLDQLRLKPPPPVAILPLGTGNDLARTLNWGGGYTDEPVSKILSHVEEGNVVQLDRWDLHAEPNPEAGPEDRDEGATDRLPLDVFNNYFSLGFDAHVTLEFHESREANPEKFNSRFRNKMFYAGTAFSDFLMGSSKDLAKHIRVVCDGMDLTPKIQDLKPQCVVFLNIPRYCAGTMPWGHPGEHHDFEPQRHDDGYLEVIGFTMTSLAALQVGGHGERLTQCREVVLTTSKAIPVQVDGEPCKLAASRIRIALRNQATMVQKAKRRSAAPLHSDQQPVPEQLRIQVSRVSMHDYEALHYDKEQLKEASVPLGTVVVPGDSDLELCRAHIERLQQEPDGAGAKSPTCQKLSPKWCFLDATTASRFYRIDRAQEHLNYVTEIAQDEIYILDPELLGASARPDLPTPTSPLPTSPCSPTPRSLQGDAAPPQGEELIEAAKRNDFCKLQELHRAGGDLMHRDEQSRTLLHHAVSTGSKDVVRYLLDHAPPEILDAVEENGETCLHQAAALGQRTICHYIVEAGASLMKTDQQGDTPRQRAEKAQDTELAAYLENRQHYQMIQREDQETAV
DGKα, sequence (P23743 whole entry): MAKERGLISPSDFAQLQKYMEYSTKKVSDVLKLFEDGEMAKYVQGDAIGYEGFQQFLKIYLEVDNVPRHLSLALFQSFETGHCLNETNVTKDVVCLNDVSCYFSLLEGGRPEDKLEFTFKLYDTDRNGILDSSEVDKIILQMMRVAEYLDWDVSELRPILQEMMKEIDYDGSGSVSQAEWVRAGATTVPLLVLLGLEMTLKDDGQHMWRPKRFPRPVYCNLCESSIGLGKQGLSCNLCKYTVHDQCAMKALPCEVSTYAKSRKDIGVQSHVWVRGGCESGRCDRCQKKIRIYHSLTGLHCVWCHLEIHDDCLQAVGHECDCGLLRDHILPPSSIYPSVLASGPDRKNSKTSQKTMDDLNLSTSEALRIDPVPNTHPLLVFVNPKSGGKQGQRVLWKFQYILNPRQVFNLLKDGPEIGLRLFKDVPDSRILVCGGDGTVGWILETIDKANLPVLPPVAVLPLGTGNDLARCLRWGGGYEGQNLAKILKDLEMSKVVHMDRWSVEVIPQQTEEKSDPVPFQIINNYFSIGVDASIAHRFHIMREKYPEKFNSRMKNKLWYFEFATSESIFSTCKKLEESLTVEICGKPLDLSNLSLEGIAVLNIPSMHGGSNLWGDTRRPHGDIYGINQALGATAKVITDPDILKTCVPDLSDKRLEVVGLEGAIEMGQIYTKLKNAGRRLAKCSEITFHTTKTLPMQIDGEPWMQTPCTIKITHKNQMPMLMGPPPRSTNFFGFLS

An IC50 (DGKα) of at most 20 nM and an IC50 (DGKζ) of at most 20 nM were found for Cc1nc2c(N3C[C@@H](C)N([C@@H](c4ccc(Cl)cc4)C(C)C)C[C@@H]3C)nc3nncn3c2n1C[C@@H]1CCCO1 [Example 89, 4-((2S,5R)-4-((R)-1-(4-chlorophenyl)-2-methylpropyl)-2,5-dimethylpiperazin-1-yl)-2-methyl-1-(((S)-tetrahydrofuran-2-yl)methyl)-1H-[1,2,4]triazolo[3,4-b]purine] in this work.
An IC50 (DGKα) of at most 20 nM and an IC50 (DGKζ) of at most 20 nM were found for CC(C)[C@@H](c1ccc(Cl)cc1)N1C[C@H](C)N(c2nc3nncn3c3c2ncn3CCN(C)C)C[C@H]1C [Example 90, 2-(4-((2S,5R)-4-((S)-1-(4-Chlorophenyl)-2-methylpropyl)-2,5-dimethylpiperazin-1-yl)-1H-[1,2,4]triazolo[3,4-b]purin-1-yl)-N,N-dimethylethan-1-amine] in this work.
An IC50 (DGKα) of at most 20 nM and an IC50 (DGKζ) of 20 to 200 nM were found for CC(C)[C@H](c1ccc(Cl)cc1)N1C[C@H](C)N(c2nc3nncn3c3c2ncn3CCN(C)C)C[C@H]1C [Example 91, 2-(4-((2S,5R)-4-((R)-1-(4-chlorophenyl)-2-methylpropyl)-2,5-dimethylpiperazin-1-yl)-1H-[1,2,4]triazolo[3,4-b]purin-1-yl)-N,N-dimethylethan-1-amine] in this work.
An IC50 (DGKα) of at most 20 nM and an IC50 (DGKζ) of at most 20 nM were found for COc1ccc([C@H](c2ccc(C(F)F)cc2)N2C[C@H](C)N(c3nc4nncn4c4c3nc(C)n4C[C@@H]3CCCO3)C[C@H]2C)cc1 [Example 92, 4-((2S,5R)-4-((4-(Difluoromethyl)phenyl)(4-methoxyphenyl)methyl)-2,5-dimethylpiperazin-1-yl)-2-methyl-1-(((S)-tetrahydrofuran-2-yl)methyl)-1H-[1,2,4]triazolo[3,4-b]purine] in this work.
An IC50 (DGKα) of at most 20 nM and an IC50 (DGKζ) of at most 20 nM were found for C[C@@H]1CN(c2nc3nncn3c3c2ncn3C[C@@H]2CCCO2)[C@@H](C)CN1C(c1ccc(Cl)cc1)c1ccc(Cl)cc1 [Example 93, 4-((2S,5R)-4-(Bis(4-chlorophenyl)methyl)-2,5-dimethylpiperazin-1-yl)-1-(((S)-tetrahydrofuran-2-yl)methyl)-1H-[1,2,4]triazolo[3,4-b]purine] in this work.
An IC50 (DGKα) of at most 20 nM and an IC50 (DGKζ) of at most 20 nM were found for Cc1nc2c(N3C[C@@H](C)N([C@H](c4cccc(F)c4)C(C)C)C[C@@H]3C)nc3nncn3c2n1C[C@@H]1CCCO1 [Example 94, 4-((2S,5R)-4-((S)-1-(3-Fluorophenyl)-2-methylpropyl)-2,5-dimethylpiperazin-1-yl)-2-methyl-1-(((S)-tetrahydrofuran-2-yl)methyl)-1H-[1,2,4]triazolo[3,4-b]purine] in this work.
An IC50 (DGKα) of at most 20 nM and an IC50 (DGKζ) of at most 20 nM were found for Cc1nc2c(N3C[C@@H](C)N([C@@H](c4cccc(F)c4)C(C)C)C[C@@H]3C)nc3nncn3c2n1C[C@@H]1CCCO1 [Example 95, 4-((2S,5R)-4-((R)-1-(3-fluorophenyl)-2-methylpropyl)-2,5-dimethylpiperazin-1-yl)-2-methyl-1-(((S)-tetrahydrofuran-2-yl)methyl)-1H-[1,2,4]triazolo[3,4-b]purine] in this work.
An IC50 (DGKα) of at most 20 nM and an IC50 (DGKζ) of at most 20 nM were found for Cc1nc2c(N3C[C@@H](C)N([C@H](c4cccc(Cl)c4)C(C)C)C[C@@H]3C)nc3nncn3c2n1C[C@@H]1CCCO1 [Example 96, 4-((2S,5R)-4-((S)-1-(3-Chlorophenyl)-2-methylpropyl)-2,5-dimethylpiperazin-1-yl)-2-methyl-1-(((S)-tetrahydrofuran-2-yl)methyl)-1H-[1,2,4]triazolo[3,4-b]purine] in this work.
An IC50 (DGKα) of at most 20 nM and an IC50 (DGKζ) of at most 20 nM were found for Cc1nc2c(N3C[C@@H](C)N([C@@H](c4cccc(Cl)c4)C(C)C)C[C@@H]3C)nc3nncn3c2n1C[C@@H]1CCCO1 [Example 97, 4-((2S,5R)-4-((R)-1-(3-chlorophenyl)-2-methylpropyl)-2,5-dimethylpiperazin-1-yl)-2-methyl-1-(((S)-tetrahydrofuran-2-yl)methyl)-1H-[1,2,4]triazolo[3,4-b]purine] in this work.
An IC50 (DGKα) of at most 20 nM and an IC50 (DGKζ) of at most 20 nM were found for COc1cccc([C@H](C(C)C)N2C[C@H](C)N(c3nc4nncn4c4c3nc(C)n4C[C@@H]3CCCO3)C[C@H]2C)c1 [Example 98, 4-((2S,5R)-4-((S)-1-(3-Methoxyphenyl)-2-methylpropyl)-2,5-dimethylpiperazin-1-yl)-2-methyl-1-(((S)-tetrahydrofuran-2-yl)methyl)-1H-[1,2,4]triazolo[3,4-b]purine] in this work.
An IC50 (DGKα) of at most 20 nM and an IC50 (DGKζ) of at most 20 nM were found for COc1cccc([C@@H](C(C)C)N2C[C@H](C)N(c3nc4nncn4c4c3nc(C)n4C[C@@H]3CCCO3)C[C@H]2C)c1 [Example 99, 4-((2S,5R)-4-((R)-1-(3-methoxyphenyl)-2-methylpropyl)-2,5-dimethylpiperazin-1-yl)-2-methyl-1-(((S)-tetrahydrofuran-2-yl)methyl)-1H-[1,2,4]triazolo[3,4-b]purine] in this work.
An IC50 (DGKα) of at most 20 nM and an IC50 (DGKζ) of at most 20 nM were found for C[C@@H]1CN(c2nc3nncn3c3c2ncn3CCN(C)C)[C@@H](C)CN1C(c1ccc(C(F)F)cc1)c1ccc(C(F)F)cc1 [Example 100, 2-(4-((2S,5R)-4-(Bis(4-(difluoromethyl)phenyl)methyl)-2,5-dimethylpiperazin-1-yl)-1H-[1,2,4]triazolo[3,4-b]purin-1-yl)-N,N-dimethylethan-1-amine] in this work.
An IC50 (DGKα) of at most 20 nM and an IC50 (DGKζ) of at most 20 nM were found for C[C@@H]1CN(c2nc3nncn3c3c2ncn3CCN(C)C)[C@@H](C)CN1[C@@H](c1ccc(C(F)(F)F)cc1)c1ccc(C(F)(F)F)cn1 [Example 101, 2-(4-((2S,5R)-2,5-Dimethyl-4-((S)-(4-(trifluoromethyl)phenyl)(5-(trifluoromethyl)pyridin-2-yl)methyl)piperazin-1-yl)-1H-[1,2,4]triazolo[3,4-b]purin-1-yl)-N,N-dimethylethan-1-amine] in this work.
An IC50 (DGKα) of at most 20 nM and an IC50 (DGKζ) of at most 20 nM were found for C[C@@H]1CN(c2nc3nncn3c3c2ncn3CCN(C)C)[C@@H](C)CN1[C@H](c1ccc(C(F)(F)F)cc1)c1ccc(C(F)(F)F)cn1 [Example 102, 2-(4-((2S,5R)-2,5-dimethyl-4-((R)-(4-(trifluoromethyl)phenyl)(5-(trifluoromethyl)pyridin-2-yl)methyl)piperazin-1-yl)-1H-[1,2,4]triazolo[3,4-b]purin-1-yl)-N,N-dimethylethan-1-amine] in this work.
An IC50 (DGKα) of at most 20 nM and an IC50 (DGKζ) of at most 20 nM were found for Cc1nc2c(N3C[C@@H](C)N(C(c4ccc(Cl)cc4)c4ccc(Cl)cc4)C[C@@H]3C)nc3nncn3c2n1C[C@@H]1CCCO1 [Example 105, 4-((2S,5R)-4-(Bis(4-chlorophenyl)methyl)-2,5-dimethylpiperazin-1-yl)-2-methyl-1-(((S)-tetrahydrofuran-2-yl)methyl)-1H-[1,2,4]triazolo[3,4-b]purine] in this work.
An IC50 (DGKα) of at most 20 nM and an IC50 (DGKζ) of at most 20 nM were found for C[C@@H]1CN(c2nc3nncn3c3c2nnn3C[C@H]2CCCO2)[C@@H](C)CN1C(c1ccc(Cl)cc1)c1ccc(Cl)cc1 [Example 106, 4-((2S,5R)-4-(Bis(4-chlorophenyl)methyl)-2,5-dimethylpiperazin-1-yl)-1-(((R)-tetrahydrofuran-2-yl)methyl)-1H-[1,2,3]triazolo[4,5-e][1,2,4]triazolo[4,3-a]pyrimidine] in this work.
An IC50 (DGKα) of at most 20 nM and an IC50 (DGKζ) of at most 20 nM were found for C[C@@H]1CN(c2nc3nncn3c3c2ncn3CCN(C)C)[C@@H](C)CN1C(c1ccc(Cl)cc1)c1ccc(Cl)cc1 [Example 107, 2-(4-((2S,5R)-4-(Bis(4-chlorophenyl)methyl)-2,5-dimethylpiperazin-1-yl)-1H-[1,2,4]triazolo[3,4-b]purin-1-yl)-N,N-dimethylethan-1-amine] in this work.
